Source: US20240366598A1, “GLUCOSE-DEPENDENT INSULINOTROPIC POLYPEPTIDE RECEPTOR ANTAGONISTS AND USES THEREOF” (Pfizer Inc., priority 2023, published 2024)

Biological target: T1, human Glucose-dependent Insulinotropic Polypeptide Receptor (hGIPR) (Homo sapiens, UniProt P48546)
T1 sequence (P48546 22-466): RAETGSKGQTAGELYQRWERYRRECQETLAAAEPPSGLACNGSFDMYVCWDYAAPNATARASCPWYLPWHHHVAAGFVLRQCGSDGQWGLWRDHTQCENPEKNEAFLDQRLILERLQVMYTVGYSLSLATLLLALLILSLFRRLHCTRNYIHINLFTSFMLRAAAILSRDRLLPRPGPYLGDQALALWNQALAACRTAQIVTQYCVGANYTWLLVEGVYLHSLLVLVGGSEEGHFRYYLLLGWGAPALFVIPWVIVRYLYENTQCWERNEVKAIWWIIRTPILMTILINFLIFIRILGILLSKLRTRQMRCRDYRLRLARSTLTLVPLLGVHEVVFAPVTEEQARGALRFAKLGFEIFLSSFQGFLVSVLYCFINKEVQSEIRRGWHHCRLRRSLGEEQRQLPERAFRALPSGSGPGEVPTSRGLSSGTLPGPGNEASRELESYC
Test: Functional in vitro GIPR antagonist potency assay (cAMP HTRF, CHO-K1 cells stably expressing hGIPR, hGIP stimulation at about EC80)
Assay type: cell-based
Details: geometric mean, hGIP at estimated EC80, examples marked ^2: overall geometric mean of multiple forms (including salts) tested
Outline: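 CHO-K1 cells expressing hGIPR (2,000 per well) in HBSS/HEPES/0.1% BSA with 200 μM IBMX were preincubated 2 h at 37 °C with an 11-point compound series (0.5% DMSO). hGIP at about EC80 was then added for 30 min, and cAMP was read by HTRF (665/620 nm). Data were normalized between hGIP alone and full antagonism by a reference antagonist at 80 μM.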

IC50 [nM]	Structure (SMILES)
26	COc1nc(C(=O)O)ccc1-c1ccc(NC(=O)[C@H]2CCCN2C(=O)Nc2ccc(C(C)C)cc2)cc1 [Example 120, 6-methoxy-5-{4-[(1-{[4-(propan-2-yl)phenyl]carbamoyl}-D-prolyl)amino]phenyl}pyridine-2-carboxylic acid]
19	Cc1cc(NC(=O)N2CCC[C@@H]2C(=O)Nc2ccc(-c3ccc(C(=O)O)cc3)nc2)ccc1C(F)(F)F [Example 163, 4-{5-[(1-{[3-methyl-4-(trifluoromethyl)phenyl]carbamoyl}-D-prolyl)amino]pyridin-2-yl}benzoic acid]
22	O=C(O)c1ccc(-c2ccc(NC(=O)[C@H]3CCCN3C(=O)Nc3ccc(CC(F)(F)F)cc3)cc2)cc1 [Example 155, 4′-[(1-{[4-(2,2,2-trifluoroethyl)phenyl]carbamoyl}-D-prolyl)amino][1,1′-biphenyl]-4-carboxylic acid]
47	O=C(O)[C@@H]1CCc2nc(NC(=O)[C@H]3CCCN3C(=O)Nc3ccc(C(F)(F)F)c(F)c3)ccc2C1 (single isomer, unassigned) [Example 220, 2-[(1-{[3-fluoro-4-(trifluoromethyl)phenyl]carbamoyl}-D-prolyl)amino]-5,6,7,8-tetrahydroquinoline-6-carboxylic acid, DIAST-1]
74	O=C(O)c1ccc(-c2ccc(NC(=O)[C@H]3CCCN3C(=O)NCc3ccc(F)c(Cl)c3)cc2)cc1 [Example 124, 4′-[(1-{[(3-chloro-4-fluorophenyl)methyl]carbamoyl}-D-prolyl)amino][1,1′-biphenyl]-4-carboxylic acid]
32	O=C(O)c1cccc(-c2ccc(NC(=O)[C@H]3CCCN3C(=O)Nc3ccc(Cl)c(C(F)(F)F)c3)nc2)c1 [Example 188, 3-{6-[(1-{[4-chloro-3-(trifluoromethyl)phenyl]carbamoyl}-D-prolyl)amino]pyridin-3-yl}benzoic acid]
1.3	CC(C)c1ccc(NC(=O)N2CCC[C@@H]2C(=O)Nc2ccc(-c3ccc(C(=O)O)cc3)cn2)cc1F [Example 207, 4-{6-[(1-{[3-fluoro-4-(propan-2-yl)phenyl]carbamoyl}-D-prolyl)amino]pyridin-3-yl}benzoic acid]
280	CC(C)c1ccc(NC(=O)N2CCC[C@@H]2C(=O)Nc2ccc(-c3ccc(O)cc3F)cc2)cc1 [Example 51, (2R)-N^2-(2′-fluoro-4′-hydroxy[1,1′-biphenyl]-4-yl)-N^1-[4-(propan-2-yl)phenyl]pyrrolidine-1,2-dicarboxamide]
180	O=C(O)c1ccc(-c2ccc(NC(=O)[C@H]3CCCN3C(=O)NCc3c(F)cc(Cl)cc3F)cc2)cc1 [Example 133, 4′-[(1-{[(4-chloro-2,6-difluorophenyl)methyl]carbamoyl}-D-prolyl)amino][1,1′-biphenyl]-4-carboxylic acid]
17	CC(C)c1ccc(NC(=O)N2CCC[C@@H]2C(=O)Nc2ccc(-c3cccc(C(=O)O)c3)cc2)cc1 [Example 3, 4′-[(1-{[4-(Propan-2-yl)phenyl]carbamoyl}-D-prolyl)amino][1,1′-biphenyl]-3-carboxylic acid]
14	Cc1nc(C(=O)O)ccc1-c1ccc(NC(=O)[C@H]2CCCN2C(=O)NCc2ccc(C(C)C)cc2)cc1 [Example 205, 6-methyl-5-(4-{[1-({[4-(propan-2-yl)phenyl]methyl}carbamoyl)-D-prolyl]amino}phenyl)pyridine-2-carboxylic acid]
14	O=C(O)c1ccc(-c2ccc(NC(=O)[C@H]3CCCN3C(=O)Nc3ccc(C(F)(F)F)cc3)cc2)cc1F [Example 204, 3-fluoro-4′-[(1-{[4-(trifluoromethyl)phenyl]carbamoyl}-D-prolyl)amino][1,1′-biphenyl]-4-carboxylic acid]
6.5	CC(C)c1ccc(NC(=O)N2CCC[C@@H]2C(=O)Nc2ccc(-c3ccc(C(=O)O)cc3)cc2F)cc1 [Example 6, 3′-Fluoro-4′-[(1-{[4-(propan-2-yl)phenyl]carbamoyl}-D-prolyl)amino][1,1′-biphenyl]-4-carboxylic acid]
27	CC(C)c1ccc(NC(=O)N2CCC[C@@H]2C(=O)Nc2cnc(-c3ccc(C(=O)O)cc3)cn2)cc1 [Example 121, 4-{5-[(1-{[4-(propan-2-yl)phenyl]carbamoyl}-D-prolyl)amino]pyrazin-2-yl}benzoic acid]
99	O=C(O)c1ccc(-c2ccc(NC(=O)[C@H]3CCCN3C(=O)Nc3ccc(C4CC4)cc3)cc2)cn1 [Example 122, 5-[4-({1-[(4-cyclopropylphenyl)carbamoyl]-D-prolyl}amino)phenyl]pyridine-2-carboxylic acid]
8.4	Cc1cc(NC(=O)N2CCC[C@@H]2C(=O)Nc2ccc(-c3ccc(C(=O)O)cc3)cc2)ncc1C(F)(F)F [Example 203, 4′-[(1-{[4-methyl-5-(trifluoromethyl)pyridin-2-yl]carbamoyl}-D-prolyl)amino][1,1′-biphenyl]-4-carboxylic acid]
7.5	Cc1cc(-c2ccc(NC(=O)[C@H]3CCCN3C(=O)Nc3ccc(C(C)C)cc3)cc2)c(F)cc1C(=O)O [Example 86, 2-fluoro-5-methyl-4′-[(1-{[4-(propan-2-yl)phenyl]carbamoyl}-D-prolyl)amino][1,1′-biphenyl]-4-carboxylic acid]
67	CC(C)c1ccc(NC(=O)N2CCC[C@@H]2C(=O)Nc2ccc3cc(C(=O)O)ccc3c2)cc1 [Example 10, 6-[(1-{[4-(propan-2-yl)phenyl]carbamoyl}-D-prolyl)amino]naphthalene-2-carboxylic acid]
49	O=C(O)c1ccc(-c2ccc(NC(=O)[C@H]3CCCN3C(=O)Nc3ccc(C(F)(F)F)cc3)cc2)cn1 [Example 196, 5-{4-[(1-{[4-(trifluoromethyl)phenyl]carbamoyl}-D-prolyl)amino]phenyl}pyridine-2-carboxylic acid]

Structure (SMILES)	IC50 [nM]
CC(C)c1ccc(NC(=O)N2CC[C@@H](C)[C@@H]2C(=O)Nc2ccc(-c3ccc(C(=O)O)cc3)cc2)cc1 (single isomer, unassigned) [Example 35, 4′-{[(3R)-3-Methyl-1-{[4-(propan-2-yl)phenyl]carbamoyl}-D-prolyl]amino}[1,1′-biphenyl]-4-carboxylic acid or 4′-{[(3S)-3-Methyl-1-{[4-(propan-2-yl)phenyl]carbamoyl}-L-prolyl]amino}[1,1′-biphenyl]-4-carboxylic acid]	4.6
